Data taken from patent US20190038723A1, “Inhibiting UVB-Irradiation Damage By Targeting Nitric Oxide Synthases (cNOS)” (priority 2016, published 2019).
Starred links: 1 amine or outer side, 2 acyl side, 3 side chain; linkers in the order of their positions; H or OH if unused. Positions of bridges follow the written chain, without caps; N, C: chain ends. Non-standard residues stand in square brackets, D forms with d. Residues, ends and D or L forms follow the SMILES beside them. Chains are numbered I, II in the order given. Actinocin(9to1) = Cc1c2oc3c(C)ccc(C(=O)[*:1])c3nc-2c(C(=O)[*:2])c(N)c1=O; NMeV = CN[C@H](C(=O)O)C(C)C; Sar = CNCC(=O)O

Key:
Format in all cases: cell-based, human
[1] = tested on: IKKα mRNA; assay: Quantitative real-time PCR of IKKα mRNA expression after UVB; settings: HaCaT pre-treated with actinomycin D 5 μg/mL, UVB 50 mJ/cm^2
Protocol: FIG. 3: Quantitative real-time PCR analysis of mRNA expression of IKKα in HaCaT human keratinocyte. The cells were pre-treated with DMSO or […] (Act.D, 5 μg/mL) and treated with of UVB (50 mJ/cm^2). The mRNA expression was normalized to GAP OH expression and depicted as fold change vs. DMSO control.

[2] = tested on: HaCaT cells; assay: Neutral comet assay of UVB-induced DNA damage in HaCaT cells; settings: for reduction of UVB-induced DNA breakage in keratinocytes: L-NAME 1 mM, UVB 10 mJ/cm^2
Protocol: FIGS. 10A-10B: UVB-induced DNA damage in HaCaT cells. The image (FIG. 10A) was captured by Cytation 3 Imaging Analyzer (BioTek, Winooski, Vt.); and, the DNA density (FIG. 10B) was analyzed by ImageJ (Version 1.46r. NIH) with Comet Assay Plugin (Pathology & Lab Med UNC-CH). *: p-value<0.05 vs. DMSO alone; **: p-value<0.05 vs. NAME. ***: p-value<0.05 vs. UV+DMSO. The data represents an average of DNA damage analysis for more than five cells.
To assess the effect of cNOS inhibitor on UVB-induced DNA damage in keratinocutes, HaCaT cells were treated with DMSO (solvent) or L-NAME (1 mM) for 1 hour prior to UVB radiation (10 mJ/cm^2). At […] post-UVB, the cells were collected and DNA damage was determined using a neutral comet assay kit following manufacture's protocol (Trevigen, Gaithersburg, Md.).

[3] = tested on: HaCaT cells; assay: Soft-agar cell transformation assay after UVB; settings: UVB every other day for 14 days
Protocol: FIG. 11: UVB-induced HaCaT cells transformation. The cell transformation was determined using a Transformation assay kit (Cell Biolabs, Inc.). *: p-value<0.05 vs. control. **: p-value<0.05 vs. UVB alone. The data represents an average of 3 sets of independent experiments.
To determine the chemoprevetive function of cNOS inhibitor for UVB-induced skin cell transformation, cells were treated with sham or UVB every other day for 14 days in the presence or absence of L-NAME (1 mM in media) all time. The cells were detached from plate and same amount of cells were seeded in soft-agar in 96-well microtiter plate. At day 10, the cells alone with soft-agar were solubilized in the wells using Cytoselect buffer (Cell Biolabs, Inc., San Diego, Calif.) and the amount of transformed cells was determined by fluorescence intensity using a Spectra Max M2 fluorescent platereader (Molecular Devices).

For `Cc1c2oc3c(C)ccc(C(=O)N[C@@H]4C(=O)N[C@H](C(C)C)C(=O)N5CCC[C@H]5C(=O)N(C)CC(=O)N(C)[C@@H](C(C)C)C(=O)O[C@@H]4C)c3nc-2c(C(=O)N[C@@H]2C(=O)N[C@H](C(C)C)C(=O)N3CCC[C@H]3C(=O)N(C)CC(=O)N(C)[C@@H](C(C)C)C(=O)O[C@@H]2C)c(N)c1=O` [actinomycin D] (I: T[dV]P[Sar][NMeV] / II: T[dV]P[Sar][NMeV]; ester I:1-I:C, II:1-II:C; linker I:N-II:N via Actinocin(9to1)), the “effect on IKKα mRNA level post-UVB” value [1] was “does not have a statistically significant effect”.
With `COC(=O)[C@@H](N)CCCNC(=N)N[N+](=O)[O-]` [L-NAME] the “percentage of UVB-induced tail DNA content” value ([2]; L-NAME 1 mM for 1 hour prior to UVB 10 mJ/cm^2, cells collected at 30 mM post-UVB, UVB+DMSO 49.2%) was 32.4%, the “tail DNA content, L-NAME alone” value ([2]; L-NAME 1 mM without UVB, DMSO alone 20.7%) was 25.6% and the “reduction of UVB-induced DNA breakage in keratinocytes” value ([2]; Control = DMSO alone) was 58.9%. For the same compound, the “reduction of UVB-induced DNA breakage in keratinocytes” value ([2]; Control = L-NAME alone) was 71.2%, the “suppression of UVB-induced transformation of keratinocytes” value ([3]; L-NAME 1 mM in media) was “almost totally suppresses” and the “reading of transformed cells (fluorescence intensity)” value ([3]; L-NAME 1 mM in media all time, soft-agar day 10, UVB alone 3.2) was 1.3.
